These are literature values, as cited in paper PMC12833858 (Journal of Medicinal Chemistry, 2026).

Data set [1] concerns the target T1, Aurora A (Homo sapiens, UniProt O14965).
T1 sequence (O14965 1-403): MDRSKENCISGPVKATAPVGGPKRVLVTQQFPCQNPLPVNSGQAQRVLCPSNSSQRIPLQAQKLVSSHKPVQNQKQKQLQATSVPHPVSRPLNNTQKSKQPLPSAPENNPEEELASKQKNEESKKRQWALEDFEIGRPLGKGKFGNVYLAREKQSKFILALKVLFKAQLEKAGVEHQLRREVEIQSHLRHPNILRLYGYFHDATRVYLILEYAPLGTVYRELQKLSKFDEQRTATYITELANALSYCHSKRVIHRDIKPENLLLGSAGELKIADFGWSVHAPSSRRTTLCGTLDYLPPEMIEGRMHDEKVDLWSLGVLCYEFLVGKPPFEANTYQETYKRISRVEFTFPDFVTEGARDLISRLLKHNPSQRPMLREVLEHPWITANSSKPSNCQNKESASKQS
Also on record: expressed in transfected cells. Particulars: reported value, HiBiT assay in MV4-11 pediatric leukemia cells. A general note: The HiBiT peptide binds its large partner to form an active luciferase.

In data set [2] the target is T1, Aurora A. Also on record: method as in Adhikari et al. Particulars: isothermal titration calorimetry, n = 4; ref Adhikari et al.; read-out: KD Aurora A (ITC). A general note: ITC needs no label: the signal is the heat of the interaction.

SMILES strings stand for the structures.

Consider `COc1cc(Nc2ncc3c(n2)-c2ccc(Cl)cc2C(c2c(F)cccc2OC)=NC3)ccc1C(=O)NCCOCCOCCNC(=O)COc1cccc2c1C(=O)N(C1CCC(=O)NC1=O)C2=O` (centres unmarked) [JB170], for which the DC50 at Aurora A [1] was 0.028 µM. The dissociation constant (Kd) (commonly the free concentration of one partner at which half of the binding sites on the other are occupied at equilibrium, for simple one-to-one binding) on Aurora A [2] was 0.375 ± 0.022 µM.
